The values below come from patent US6110944A, “LTA4, hydrolase inhibitors” (G. D. Searle & Co., priority 1997, dated 2000).

Where a name gives a salt, the structure may show the parent alone.

For test [1], the system named is LTB4 production in calcium ionophore-stimulated human blood. The experiment in a line: LTB4 Production by Calcium Ionophore Stimulated Human Blood (HWB). Format: cell-based. To be noted: human blood diluted 1:4, 15 min preincubation at 37° C., ionophore 20 mcg/ml, 10 min; read-out: Inhibition of Calcium Ionophore-induced LTB4 Production in Human Blood IC50 HWB. The method, then:
LTB4 and Thromboxane Production by Calcium Ionophore Stimulated Human Blood for LTB4 Hydrolase Inhibitor Activity
Human blood, collected in heparin-containing Vacutainer tubes, was diluted 1:4 with RPMI-1640 media and 200 μl of the diluted blood was added into each of a 96-well microtiter plate. One or more concentrations of the leukotriene A4 hydrolase inhibitor compounds being tested were prepared (diluted in DMSO) and 2 μl added and gently mixed with the diluted whole blood. After incubating for 15 minutes at 37° C. in a humidified incubator, calcium ionophore […] (Sigma Chemical Co., St. Louis, Mo.) was added to a final concentration of 20 mcg/ml and the incubation continued under the same conditions for an additional 10 minutes to allow LTB4 formation. The reaction was terminated by centrifugation (833 g, 10 minutes at 4° C.) and supernatant were analyzed for LTB4 and thromboxane by commercially available enzyme-linked immunoassays (Caymen Chemical Co., Ann Arbor, Mich.) according to the manufacturer's instructions. The IC50 of each test compound was determined from the amount of inhibition of LTB4 production as compared to an essentially identical assay in which no inhibitor compound was present.

Test [2] concerns LTB4 production in calcium ionophore-stimulated mouse blood. The experiment in a line: Murine Ex Vivo LTB4 Inhibition, calcium ionophore stimulated mouse blood after oral gavage. The test is classed as in vivo. The following applies: blood collected 1 hour after administration, ionophore A23187 20 mcg/ml, read-out: Murine Ex Vivo LTB4 Inhibition % I LTB4 at 1 hour after administration of 10 mg/kg. The method, then:
Ex Vivo LTB4 and Thromboxane Production by Calcium Ionophore Stimulated Mouse Blood for LTB4 Hydrolase Inhibitor Activity
Leukotriene A4 hydrolase inhibitor compounds of the present invention were diluted to a predetermined concentration in phosphate buffered saline containing 2%; DMSO and 1% Tween 80. The compounds were administered by oral gavage to adult male outbred mice weighing approximately 20-30 gm at a dose of 10 mg/kg body weight. (Compounds given at a dose of 50 mg/kg body weight are designated in following Table by the symbol, *) Sixty (60) minutes after administration of an LTA4 inhibitor compound of the invention, blood was collected (into heparin-containing tubes) from the retroorbital sinus. […] The mixture was incubated for 10 minutes at 37° C. in a humidified incubator. The reaction was terminated by centrifugation (833 g. 10 minutes at 4° C.). Supernatant were analyzed for LTB4 and thromboxane by commercially available enzyme-linked immunoassays [Caymen Chemical Co., Ann Arbor, Mich.] in accordance with the manufacturer's instructions. The percent inhibition was determined by comparison to animals treated identically except that the solution administered by oral gavage was devoid of inhibitor compound.

The target of test [3] is T1, recombinant human LTA hydrolase (rhLTAH) (Homo sapiens, UniProt P09960).
T1 construct: made in house; host or cells: Spodoptera frugiperda Sf-9 cells (baculovirus AcNPV)
T1 sequence (P09960 1-611): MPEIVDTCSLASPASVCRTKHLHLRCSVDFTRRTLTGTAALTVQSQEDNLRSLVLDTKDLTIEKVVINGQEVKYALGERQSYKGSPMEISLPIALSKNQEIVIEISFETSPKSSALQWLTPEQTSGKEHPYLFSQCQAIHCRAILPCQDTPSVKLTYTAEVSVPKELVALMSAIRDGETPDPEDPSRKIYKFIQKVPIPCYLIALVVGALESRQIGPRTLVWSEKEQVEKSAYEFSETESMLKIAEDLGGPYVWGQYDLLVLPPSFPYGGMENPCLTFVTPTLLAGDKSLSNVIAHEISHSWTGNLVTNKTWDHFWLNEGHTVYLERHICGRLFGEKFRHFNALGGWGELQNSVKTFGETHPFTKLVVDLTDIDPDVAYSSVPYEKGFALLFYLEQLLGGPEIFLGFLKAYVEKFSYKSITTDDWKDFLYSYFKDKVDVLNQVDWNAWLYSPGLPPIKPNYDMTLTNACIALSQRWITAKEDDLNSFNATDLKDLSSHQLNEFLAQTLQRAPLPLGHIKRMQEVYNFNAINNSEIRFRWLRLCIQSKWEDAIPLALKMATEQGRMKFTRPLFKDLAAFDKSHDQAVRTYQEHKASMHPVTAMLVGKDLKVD
Put plainly: Recombinant Human LTA Hydrolase Assay for LTA Hydrolase Inhibitor Activity. The test is classed as biochemical. The following applies: 250 ng rhLTA4H, 10 min preincubation, room temperature, pH 7.4, 10 min reaction, immunoassay; read-out: Recombinant Human LTA4 Hydrolase Assay IC50 LTA4. The procedure:
Recombinant Human LTA Hydrolase Assay for LTA Hydrolase Inhibitor Activity
Compounds of the present invention were tested for LTA hydrolase inhibitor activity against recombinant human LTA hydrolase (rhLTAH). Recombinant human LTA hydrolase-encoding vectors were prepared and used to express rhLTAH essentially as described by J. Gierse, et al., Protein Expression and Purification, 4, 358-366 (1993). Briefly, LTA hydrolase encoding DNA was amplified by polymerase chain reaction using a pair of oligonucleotide primers based on the nucleotide sequence from the 5'-end, and the complement of the 3'-end, of the coding region of the LTA hydrolase gene, the nucleotide sequence of which gene is known. (See, C. Funk, et al., Proc. Natl. Acad. Sci. U.S.A. 84, 6677-6681 (1987)). A λgt11 human placental cDNA library (Clonetech, Palo Alto, Calif.) provided the nucleic acid template. […] The amplified 1.9 kb DNA was isolated and cloned into the genomic baculovirus, Autographa californica nuclear polyderosis virus (AcNPC) DNA, and the baculovirus expression vector was transfected into Spodoptera frugiperda Sf-9 cells employing the calcium phosphate co-precipitation method (see, M. Summers, et al., Tex. Agric. Exp. Stn. Bull. 1555, 1-57 (1987). Recombinant LTA4 hydrolase enzyme was purified from the transfected Sf-9 cells essentially as described by J. Gierse, et al., supra.
One or more predetermined amounts of a compound of the invention were incubated in assay buffer (0.1 M potassium phosphate, 5 mg/ml fatty acid free BSA, 10% DMSO, pH 7.4) for 10 minutes at room temperature with 250 ng of recombinant hLTA4 H to allow binding, if any, between the enzyme and inhibitor. The stock enzyme solution was 1 mg/m. LTA4 hydrolase, 50 mM Tris, pH 8.0, 150 mM NaCl, 2.5 mM beta-mercaptoethanol, 50% glycerol. The specific activity of the enzyme was about 650 nMoles/min/mg. LTA4 (i.e., substrate) was prepared from the methyl ester of LTA, (Biomol, Inc., Plymouth Meeting, Pa.) by treating the methyl ester with 30 molar equivalents of LiOH at room temperature for 18 hours. The LTA4 substrate in its free acid form was kept frozen at -80° C. until needed. LTA, (free acid) was thawed and diluted in assay buffer (minus DMSO) to a concentration of 350 ng/ml and 25 μl (8 ng) of LTA4 substrate was added to the reaction mixture (total volume of reaction mixture=200 μl at time zero. Each reaction was carried out at room temperature for 10 minutes. The reaction was stopped by diluting 25 μl of the reaction mixture with 500 μl of the assay buffer without DMSO. […] was quantified in the diluted sample by a commercially available enzyme-linked immunoassay [Caymen Chemical Col. Ann Arbor, Mich.] using the method recommended in the manufacturer's instructions and compared to the amount of […] produced in a negative control (i.e., essentially identical conditions except without addition of an inhibitor compound). The IC50 was routinely calculated from the data produced.

The next test has as its system granulocyte. To be noted: R. Lewis, et al., 1990; cited from earlier work.
Another test relates to LTA4 hydrolase. To be noted: background statement, no value; cited from earlier work.

Regarding `N=C(COc1ccc(Cc2ccccc2)cc1)N1CCCC1` [Example 3, α[[4-(phenylmethyl)phenoxy)methyl]-1-pyrrolidinemethanimine, monohydrochloride], the IC50 in test [1] is 53 nM; in test [3], 4 nM. In addition, the inhibition at 10 mg/kg in test [2] was 46%.

Regarding `N=C(COc1ccc(Cc2ccccc2)cc1)N1CCCCC1` [Example 4, α[[4-(phenylmethyl)phenoxy)methyl]-1-peperidinemethanimine, monohydrochloride], the figures for the IC50 in test [1] and in test [3] were 85 nM and 4.3 nM, respectively. Moreover, the inhibition at 10 mg/kg in test [2] was found to be 30%.

Regarding `CCOC(=O)C1CCN(C(=N)COc2ccc(Cc3ccccc3)cc2)CC1` [Example 5, ethyl 1-[1-imino-2-[4-(phenylmethyl)phenoxy]ethyl]-4-piperidinecarboxylate,monohydrochloride], the IC50 in test [1] stood at 71 nM; in test [3] it was 1.3 nM. Besides, the inhibition at 10 mg/kg in test [2] is 62%.

As to `CCOC(=O)CCNC(=N)COc1ccc(Cc2ccccc2)cc1` [Example 6, ethyl 3-[[1-imino-2-[4-(phenylmethyl)phenoxy]ethyl]amino]propanoate, monohydrochloride], the IC50 in test [1] worked out at 200 nM; in test [3], 23 nM. The inhibition at 10 mg/kg in test [2] worked out at 54%.

As to `c1ccc(Cc2ccc(OCC3=NCCN3)cc2)cc1` [Example 7, 4,5-dihydro-2-[[4-(phenylmethyl)phenoxy]methyl]-1H-imidazole], the IC50 in test [1] amounted to 220 nM; in test [3], 70 nM. For the same molecule, in test [2], the inhibition at 10 mg/kg is 33%.

`COC(=O)CCN1CCN=C1COc1ccc(Cc2ccccc2)cc1` [Example 8]: the IC50 was found to be 550 nM in test [1] and 1170 nM in test [3]. Also, in test [2], the inhibition at 10 mg/kg came out at 68%.

Regarding `N=C(COc1ccc(Cc2ccccc2)cc1)N1CCC(C(N)=O)CC1` [Example 9, 1-[1-imino-2-[4-(phenylmethyl)phenoxy]ethyl]-4-piperidinecarboxamide], the IC50 was determined as 77 nM in test [1] and 17 nM in test [3]. In addition, the inhibition at 10 mg/kg in test [2] came out at 30%.

As to `N=C(N)COc1ccc(Cc2ccccc2)cc1` [Example 10, 1-imino-2-[4-(phenylmethyl)phenoxy]ethanamine], the IC50 in test [1] was 480 nM; in test [3], 89 nM. Further, the inhibition at 10 mg/kg in test [2] amounted to 0%.

As for `N=C(COc1ccc(Cc2ccccc2)cc1)NC1C2CC3CC(C2)CC1C3` (stereo not shown) [Example 11, 2-[4-(phenylmethyl)phenoxy]-N-(tricyclo[3.3.1.1 3,7]decan-2-yl)ethanimidamide, monohydrate], in test [3], the IC50 turned out to be 7800 nM.

With `NC(COc1ccc(Cc2ccccc2)cc1)=NO` [Example 12, N'-hydroxy-2-[4-(phenylmethyl)phenoxy]ethanimidamine], the IC50 in test [1] is 17900 nM; in test [3], above 100000 nM. In test [2], the inhibition at 10 mg/kg came out at 63%.

For the molecule `c1ccc(Cc2ccc(OCC3=NC4CCCCC4N3)cc2)cc1` (stereo not shown) [Example 13], the figures for the IC50 in test [1] and in test [3] were 190 nM and 200 nM, respectively. For the same molecule, in test [2], the inhibition at 10 mg/kg is 71%.

Consider `N=C(CCCOc1ccc(Cc2ccccc2)cc1)N1CCCCC1` [Example 16, α-[3-[4-(phenylmethyl)phenoxy)propyl]-1-peperidinemethanimine, monohydrochloride], for which the IC50 in test [1] was found to be 640 nM; in test [3], 53 nM. The inhibition at 10 mg/kg in test [2] is 60%.

Take `c1ccc(Cc2ccc(OCCCC3=NCCN3)cc2)cc1` [Example 17]: the IC50 in test [1] came to 640 nM; in test [3], 64 nM. The inhibition at 10 mg/kg in test [2] was determined as 28%.

As for `CCCCC/C=C\C[C@@H](O)/C=C/C=C/C=C\[C@@H](O)CCCC(=O)O` [LTB4], in the test on granulocyte, the “granulocyte agonist activity inducing chemotaxis, aggregation, degranulation, adherence and priming” value is “potent granulocyte agonist”.

In the case of `CC(C)C[C@H](NC(=O)[C@@H](O)[C@H](N)Cc1ccccc1)C(=O)O` [bestatin], the “LTA4 hydrolase inhibitory activity” value in the test with LTA4 hydrolase was “exhibit LTA4 hydrolase inhibitory activity”.

As for `C[C@H](CS)C(=O)N1CCC[C@H]1C(=O)O` [captopril], the “LTA4 hydrolase inhibitory activity” value in the test on LTA4 hydrolase is “exhibit LTA4 hydrolase inhibitory activity”.
